Assay results published in patent US12102675B2, “MRNA therapeutic compositions” (Nutcracker Therapeutics, Inc., priority 2022, dated 2024).
“Also recorded” adds a separate entry of the source.

Columns and labels:
[1] = Rat toxicology study, control mRNA in DV-140-F2, intramuscular; type: in vivo, Sprague-Dawley rats; conditions: 4 doses in 2 weeks
Experimental: Briefly, Sprague-Dawley rats (n=8) were treated with a control mRNA formulated in DV-140-F2 at 0.03 or 0.3 mg/kg or PBS vehicle. Injections were done 4 times over the course of 13 days and were administered intramuscularly into the hind limb. Whole blood was taken for hematology, and serum taken for clinical chemistry and cytokine analysis at 6 hours post the first dose and final dose, and 2 weeks post the final dose. Additionally, 2 of the animals were sacrificed at 6 hours post the final dose and 2 weeks post final dose and a gross necropsy was performed. Tissue samples were retained and histopathology run on select organs.

[2] = test system: persistent, recurrent, or metastatic cervical cancer, tumors express PD-L1 (CPS≥1); conditions: in combination with chemotherapy, with or without bevacizumab; cited from earlier work
[3] = test system: recurrent or metastatic cervical cancer, tumors express PD-L1 (CPS≥1); conditions: single agent, disease progression on or after chemotherapy; cited from earlier work
HVEM = target: T1, HVEM (Homo sapiens, UniProt Q92956); assay: HVEM activation by LIGHT, HVEM reporter cell line; type: cell-based; conditions: FIGS. 1A, 1B, 12
T1 construct: host or cells: HVEM reporter cell line (not further described)
T1 sequence (Q92956 39-283): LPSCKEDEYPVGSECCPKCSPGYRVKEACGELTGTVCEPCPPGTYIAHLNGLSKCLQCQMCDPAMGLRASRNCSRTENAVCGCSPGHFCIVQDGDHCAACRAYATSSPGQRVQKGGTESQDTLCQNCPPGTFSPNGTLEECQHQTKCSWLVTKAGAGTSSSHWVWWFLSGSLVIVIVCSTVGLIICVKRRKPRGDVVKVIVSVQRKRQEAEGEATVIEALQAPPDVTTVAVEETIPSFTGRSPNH
Text: FIG. 12 illustrates pre-blocking of soluble LIGHT in HVEM co-HEK transfected cells.
FIGS. 13A-13C are a comparison of HVEM activation with supernatant (blue) or cells (orange) for soluble LIGHT or membrane-stabilized LIGHT.

primary human T cell = assay: Human T cell proliferation in response to ENG or WT hLIGHT mRNA with hIL-12 mRNA; type: cell-based; conditions: HEK293 transfected with hIL-12 mRNA plus LIGHT mRNA, 1:5 with T cells, anti-CD3 30 or 100 ng/mL, 4 days; relative to IL-12 and WT hLIGHT
Experimental: This study was designed to compare the ability of ENG and WT hLIGHT mRNAs in combination with hIL-12 mRNA to stimulate primary human T cell proliferation. Human T cells were isolated from PBMCs from 1 healthy donor and stained with CellTrace Violet. HEK293 cells were transfected with hIL-12 mRNA (RNA-683) and WT hLIGHT (RNA-786) or ENG hLIGHT (RNA-1359) mRNA formulated in Lipofectamine MessengerMAX (0.5 ng each mRNA per 1000 cells). Control cells were transfected with noncoding mRNA control in the same way. Transfected HEK293 cells were cocultured with the T cells in a 1:5 ratio in the presence of 30 ng/mL or 100 ng/mL anti-CD3 antibody to mimic antigen specific TCR engagement for 4 days at 37° C., 5% CO2. CD8+ T cell proliferation was assessed by flow cytometry and the proliferation index was calculated. […] The results are shown in FIG. 10A, where ENG=engineered; HEK=human embryonic kidney; IL-12=interleukin-12; PBMC=peripheral blood mononuclear cell; WT=wildtype. The data in FIG. 10A represent mean±standard deviation (n=4). Statistical analysis was performed by unpaired student's t-test (P<0.05).

transfected cells = assay: Surface expression of soluble or membrane-stabilized LIGHT by flow cytometry using HVEM binding; type: cell-based; conditions: compared to WT LIGHT mRNA
Text: FIGS. 14A and 14B depict the assessment of surface expression of soluble LIGHT or membrane-stabilized LIGHT by flow cytometry using HVEM binding.

CD3+ T cells = assay: T cell proliferation in co-culture with HEK cells transfected with LIGHT variants; type: cell-based, human; conditions: vs soluble (Wt) LIGHT, FIGS. 9A, 9B
Experimental: LIGHT variants were formulated in MessengerMax mRNA Transfection Reagent. Human embryonic kidney (HEK) cells were transfected with the LIGHT variant constructs for cell surface expression of LIGHT. CellTrace Violet (Thermo Fischer Scientific) was used to label CD3+ T cells from the resulting peripheral blood mononuclear cells (PBMC). 100 ng/mL of soluble CD3 Antibody was added to the resulting labeled CD3+ T cells. The T cell proliferation and interferon-gamma (IFN-7) secretion was evaluated about 5 days of co-culture.

[4] = High dose in rat, 100 μg RNA IM
[5] = Therapeutic dose scaled for rat, 30 μg RNA IM

## CCCCCCCCCCN(CC(N)=O)C(=O)CN(CCCCCCCCCC)C(=O)CN(CCCCCCCCCC)C(=O)CN(CCCCCCCCCC)C(=O)CNCCO [Compound 140, N-(2-amino-2-oxoethyl)-N-decyl-2-(N-decyl-2-(N-decyl-2-(N-decyl-2-((2-hydroxyethyl)amino)acetamido)acetamido)acetamido)acetamide]
[1]; [4]
  Gross organ pathology: None observed
  Injection site reactions or other clinical observations: None observed
[1]; [5]
  Gross organ pathology: None observed
  Injection site reactions or other clinical observations: None observed

## pembrolizumab [KEYTRUDA]
[2]
  overall survival: improvements in overall survival
[3]
  objective response: around 14%

B1: soluble LIGHT: Wild-type soluble human LIGHT (SEQ ID NO: 1) (protein)
chain: MEESVVRPSVFVVDGQTDIPFTRLGRSHRRQSCSVARVGLGLLLLLMGAGLAVQGWFLLQLHWRLGEMVTRLPDGPAGSWEQLIQERRSHEVNPAAHLTGANSSLTGSGGPLLWETQLGLAFLRGLSYHDGALVVTKAGYYYIYSKVQLGGVGCPLGLASTITHGLYKRTPRYPEELELLVSQQSPCGRATSSSRVWWDSSFLGGVVHLEAGEEVVVRVLDERLVRLRDGTRSYFGAFMV
modifications: Human Wild Type LIGHT (786) aa
HVEM
  effect of soluble LIGHT on HVEM binding and signaling by membrane-stabilized LIGHT: decreases the ability of membrane-stabilized LIGHT to activate HVEM; also recorded: competes for HVEM binding and reduces signaling by membrane-stabilized LIGHT

B2: ENG hLIGHT: mRNA SEQ ID NO: 18 encoding human LIGHT with amino acids #66-92 replaced by 10 amino acid linker (SEQ ID NO: 17) (nucleic acid)
chain: AGGCAUAGAAGUCGAGACACAGCCACUAAGUAAGCCACCAUGGAGGAGAGCGUGGUGCGGCCUAGCGUGUUCGUGGUCGACGGCCAGACCGACAUCCCCUUCACCAGACUGGGAAGAAGCCACAGAAGGCAGUCUUGCUCCGUGGCCAGAGUGGGCCUGGGCCUGCUCCUGCUGCUGAUGGGCGCUGGCCUGGCCGUGCAAGGCUGGUUCCUGCUGCAGCUGCACUGGCGGCUGGGCAGCAGCGCCUCUACCGAUAAGACCCACACCGUGAACCCUGCCGCCCACCUGACCGGCGCCAACAGCUCUCUGACCGGAUCUGGCGGACCUCUGCUGUGGGAGACACAGCUGGGCCUUGCUUUUCUGCGGGGCCUGAGCUACCACGACGGCGCUCUGGUGGUUACAAAGGCCGGCUACUACUACAUCUACAGCAAGGUGCAGCUGGGAGGCGUGGGUUGUCCACUGGGACUGGCCAGCACAAUCACACACGGCCUUUAUAAGCGGACCCCUAGAUACCCCGAGGAACUGGAACUGCUGGUCUCCCAGCAGAGCCCUUGCGGCAGAGCCACAAGCAGCAGCAGAGUGUGGUGGGACAGCUCAUUCCUGGGCGGCGUGGUGCAUCUGGAAGCCGGCGAGAAAGUGGUGGUCAGAGUGCUGGACGAGAGACUGGUGCGGCUGAGAGAUGGGACCCGCUCCUACUUCGGCGCCUUUAUGGUGUGAUAAGCGCCGCCUCCGGGACAGUGCACCCAGGCUGCGGCCCCUCCCCCGUCCUGGAGGUUCCCCAGCCCCACUUACCGCUUAAUGCGCCAAUAAACCAAUGAACGAAGCAAAAAAAAAAAAAAAAAAAAAAAAAAAAAAAAAAAAAAAAAAAAAAAAAAAAAAAAAAAAAAAAAAAAAAAAAAAAAAAAAAAAAAAAAAAAAAAAAAAAAAAAAAAAAAAAAAAAAAAAAAAAAAAAAAAAAAAAAAAAAAAAAAAAAAAAAAAAAAAAAAAAAAAAA
modifications: LIGHT ICD TM 1-66 RLG … LIGHT 92-240 1359, aka 1495 nt
Primary human T cell
  CD8+ T cell proliferation and survival: increased CD8+ T cell proliferation and survival
Transfected cells
  surface expression and bioactivity on transfected cells: higher surface expression and bioactivity
CD3+ T cells; listed as 1359
  T-cell proliferation: increase of T-cell proliferation
CD3+ T cells; listed as ENG LIGHT mRNA
  T-cell proliferation: increased T cell proliferation
